Source: patent US20240132513A1, “BENZAZEPINE DERIVATIVES, COMPOSITIONS, AND METHODS FOR TREATING COGNITIVE IMPAIRMENT” (AGENEBIO, INC., priority 2022, published 2024)

target: α5β3γ2 GABAA R (Homo sapiens, UniProt P18507+P31644); assay: Binding activity on GABAA R: inhibition of [3H]Ro15-1788 binding, α5 containing receptor; conditions: not given
Procedure: Tissue culture and Membrane Preparation: The binding was performed on Ltk cells stably expressing GABAA R: […], α2β3γ2, α3β3γ2 and α5β3γ2 (provided by Merck Co., NJ, USA). Cells were seeded in 100 mm culture plates in DMEM/F12 medium containing 10% serum and antibiotics in 5% CO2 and allowed to grow for 1-2 days. GABAAR expression was then induced by dexamethasone as follows: 0.5 μM for 1 day for α5 containing and 2 μM for 3 days for α1, α2 and α3 containing GABAARs. After induction, cells were collected by scraping into Dulbecco's Phosphate buffered saline (DPBS, pH 7.4, Invitrogen, Carlsbad, CA, USA) and centrifuged at 150×g for 10 min. The pellet was washed twice by re-suspension and centrifugation. The cell pellets from at least 5 different preps were combined, suspended in the binding assay buffer (50 mM KH2PO4; 1 mM EDTA; 0.2 M KCl, pH 7.4) and membranes prepared by sonication (3-5 times, 30 sec) using Branson Sonifier 150 (G. Heinmann, Germany). Protein content was determined using BCA assay (Bio-Rad Labs, Reinach, Switzerland) with Bovine Serum Albumin (Sigma Aldrich, St. Louis, MO, USA) as the standard. Aliquots were prepared and stored at −20° C. for further use in binding assays.
Ligand Binding: Saturation binding curves were obtained by incubating membranes with increasing concentrations (0.01-8 nM) of [^3H]Rol5-1788 (Flumazepil, 75-85 Ci/mmol, PerkinElmer, MA, USA), with nonspecific binding measured in the presence of 10 μM diazepam.
All binding assays were performed for 1 h at 4° C. in assay buffer. The total assay volume was 0.5 ml containing 0.2 mg/ml protein for α5 and 0.4 mg/ml for α1, α2, and α3 containing GABAAR membranes. Incubations were terminated by filtration through GF/B filters using a 24-Cell Harvestor (Brandel, Gaithersburg, MD, USA) followed by 3 washes with ice-cold assay buffer. Filters were transferred to scintillation vials, 5 ml scintillation liquid added, vortex-mixed and kept in dark. Next day, radioactivity was obtained using a scintillation counter (Beckman Coulter, Brea, CA, USA). All assays were performed in triplicate.
Data Analyses: Saturation and inhibition curves were obtained using GraphPad Prism software (GraphPad Software, Inc., CA, USA).

Chain of α5β3γ2 GABAA R (P31644 32-462): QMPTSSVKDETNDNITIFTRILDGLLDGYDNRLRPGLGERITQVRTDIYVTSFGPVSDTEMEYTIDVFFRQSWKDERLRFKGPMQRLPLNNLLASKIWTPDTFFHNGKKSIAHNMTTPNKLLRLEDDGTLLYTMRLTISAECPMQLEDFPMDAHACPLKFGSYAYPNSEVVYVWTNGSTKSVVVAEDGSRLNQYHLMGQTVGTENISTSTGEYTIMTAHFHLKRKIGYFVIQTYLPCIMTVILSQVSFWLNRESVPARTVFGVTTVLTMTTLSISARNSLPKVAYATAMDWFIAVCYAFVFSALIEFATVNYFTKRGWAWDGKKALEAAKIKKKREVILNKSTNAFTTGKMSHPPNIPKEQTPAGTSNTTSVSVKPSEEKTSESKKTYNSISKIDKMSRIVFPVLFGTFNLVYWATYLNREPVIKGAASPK
Chain of α5β3γ2 GABAA R (P28472 26-473 partner): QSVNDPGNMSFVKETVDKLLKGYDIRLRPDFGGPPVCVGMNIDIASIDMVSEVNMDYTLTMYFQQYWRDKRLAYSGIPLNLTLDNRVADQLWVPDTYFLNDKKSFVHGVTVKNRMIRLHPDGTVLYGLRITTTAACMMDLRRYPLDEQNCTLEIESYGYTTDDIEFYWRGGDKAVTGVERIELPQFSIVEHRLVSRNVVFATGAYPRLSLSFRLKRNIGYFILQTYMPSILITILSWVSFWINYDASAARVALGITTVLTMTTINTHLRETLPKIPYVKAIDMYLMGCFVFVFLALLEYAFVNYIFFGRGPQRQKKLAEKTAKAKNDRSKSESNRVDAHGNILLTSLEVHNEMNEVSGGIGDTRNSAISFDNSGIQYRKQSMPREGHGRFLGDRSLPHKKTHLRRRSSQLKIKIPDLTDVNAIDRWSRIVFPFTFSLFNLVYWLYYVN
Chain of α5β3γ2 GABAA R (P18507 40-475): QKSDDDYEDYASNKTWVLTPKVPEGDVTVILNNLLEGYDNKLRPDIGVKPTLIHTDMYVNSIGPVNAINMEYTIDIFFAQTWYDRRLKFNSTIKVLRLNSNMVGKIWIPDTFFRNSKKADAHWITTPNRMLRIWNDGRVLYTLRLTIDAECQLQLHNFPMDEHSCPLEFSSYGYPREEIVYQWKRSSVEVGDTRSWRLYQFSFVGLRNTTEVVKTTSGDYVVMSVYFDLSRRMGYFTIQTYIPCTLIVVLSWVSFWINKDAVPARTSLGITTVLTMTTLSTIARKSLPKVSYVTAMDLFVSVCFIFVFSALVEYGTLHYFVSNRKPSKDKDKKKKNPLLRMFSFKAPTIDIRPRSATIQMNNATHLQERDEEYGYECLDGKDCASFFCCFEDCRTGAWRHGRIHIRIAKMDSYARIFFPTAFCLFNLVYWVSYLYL

Row | SMILES | Ki
1 | Cc1noc(-c2ncn3c2Cc2cnn(Cc4ccccc4)c2-c2cc(Cl)ccc2-3)n1 [Compound 1] | < 100 nM
2 | CC(C)c1noc(-c2ncn3c2Cc2cnn(Cc4ccccc4)c2-c2cc(Cl)ccc2-3)n1 [Compound 2] | 100 to 1000 nM
3 | Cc1noc(-c2ncn3c2Cc2cnn(C)c2-c2cc(Cl)ccc2-3)n1 [Compound 3] | < 100 nM
4 | CC(C)c1noc(-c2ncn3c2Cc2cnn(C)c2-c2cc(Cl)ccc2-3)n1 [Compound 4] | 100 to 1000 nM
5 | Clc1ccc2c(c1)-c1c(cnn1Cc1ccccc1)Cc1c(C3=N[C@H](c4ccccc4)CO3)ncn1-2 [Compound 5] | 100 to 1000 nM
6 | COc1ccc2c(c1)-c1c(cnn1Cc1ccccc1)Cc1c(-c3nc(C(C)C)no3)ncn1-2 [Compound 8] | 100 to 1000 nM
7 | COc1ccc2c(c1)-c1[nH]ncc1Cc1c(C3=N[C@@H](c4ccccc4)CO3)ncn1-2 [Compound 15] | < 100 nM
8 | COc1ccc2c(c1)-c1nn(Cc3ccccc3)cc1Cc1c(-c3nc(C)no3)ncn1-2 [Compound 16] | < 100 nM
9 | COc1ccc2c(c1)-c1nn(Cc3ccccc3)cc1Cc1c(-c3nc(C(C)(C)C)no3)ncn1-2 [Compound 17] | < 100 nM
10 | COc1ccc2c(c1)-c1nn(Cc3cccc(F)c3)cc1Cc1c(-c3nc(C)no3)ncn1-2 [Compound 22] | < 100 nM
11 | COc1ccc2c(c1)-c1[nH]ncc1Cc1c(C3=N[C@H](c4ccc(Cl)cc4)CO3)ncn1-2 [Compound 24] | < 100 nM
12 | CCOC(=O)c1cnc2n1CC(=O)N(C)c1cc(Cl)ccc1-2 [Compound 28] | > 1000 nM
13 | CC(C)c1noc(-c2cnc3n2CC(=O)N(C)c2cc(Cl)ccc2-3)n1 [Compound 31] | > 1000 nM
14 | COc1ccc(Cn2ncc3c2-c2cc(OC)ccc2-n2cnc(C#Cc4ccc(OC)nc4)c2C3)cc1 [Compound 36] | 100 to 1000 nM
15 | COc1ccc(Cn2ncc3c2-c2cc(OC)ccc2-n2cnc(C#Cc4ccnn4C)c2C3)cc1 [Compound 37] | 100 to 1000 nM
16 | COc1ccc2c(c1)-c1[nH]ncc1Cc1c(C#Cc3ccc(OC)nc3)ncn1-2 [Compound 38] | < 100 nM
17 | COc1ccc2c(c1)-c1nn(Cc3ccccc3F)cc1Cc1c(-c3nc(C(C)C)no3)ncn1-2 [Compound 43] | < 100 nM
18 | COc1ccc2c(c1)-c1c(cnn1C)Cc1c(-c3nc(C(C)C)no3)ncn1-2 [Compound 47] | 100 to 1000 nM
19 | COc1ccc(C#Cc2ncn3c2Cc2cn[nH]c2-c2cc(OC)ccc2-3)nc1 [Compound 53] | < 100 nM
20 | COc1ccc2c(c1)-c1[nH]ncc1Cc1c(-c3noc(C(C)C)n3)ncn1-2 [Compound 54] | < 100 nM
21 | CCOC(=O)c1cnc2n1Cc1nncn1-c1cc(Cl)ccc1-2 [Compound 56] | < 100 nM

Row | SMILES | Ki
22 | Clc1ccc2c(c1)-c1[nH]ncc1Cc1c(-c3cnn(-c4ccccc4)c3)ncn1-2 [Compound 60] | 100 to 1000 nM
23 | Clc1ccc2c(c1)-c1[nH]ncc1Cc1c(-c3cnoc3)ncn1-2 [Compound 61] | 100 to 1000 nM
24 | Cn1cc(-c2ncn3c2Cc2cn[nH]c2-c2cc(Cl)ccc2-3)cn1 [Compound 62] | 100 to 1000 nM
25 | CC#Cc1ncn2c1Cc1cn[nH]c1-c1cc(Cl)ccc1-2 [Compound 65] | < 100 nM
26 | COc1ccc2c(c1)-c1[nH]ncc1Cc1c(-c3cnn(-c4ccccc4)c3)ncn1-2 [Compound 70] | 100 to 1000 nM
27 | COc1ccc2c(c1)-c1[nH]ncc1Cc1c(-c3ncco3)ncn1-2 [Compound 71] | < 100 nM
28 | COc1ccc2c(c1)-c1[nH]ncc1Cc1c(-c3cnn(Cc4ccccc4)c3)ncn1-2 [Compound 72] | < 100 nM
29 | COc1ccc2c(c1)-c1nn(Cc3ccccc3F)cc1Cc1c(-c3cnn(-c4ccccc4)c3)ncn1-2 [Compound 75] | 100 to 1000 nM
30 | COc1ccc2c(c1)-c1nn(Cc3ccccc3F)cc1Cc1c(-c3cnn(Cc4ccccc4)c3)ncn1-2 [Compound 77] | < 100 nM
31 | COc1ccc2c(c1)-c1[nH]ncc1Cc1c(-c3cc(C(F)(F)F)nn3C)ncn1-2 [Compound 79] | 100 to 1000 nM
32 | COc1ccc2c(c1)-c1[nH]ncc1Cc1c(-c3cnn(C)c3)ncn1-2 [Compound 82] | 100 to 1000 nM
33 | CC(C)(C)C#Cc1ncn2c1Cc1cn(Cc3ccccc3)nc1-c1cc(Cl)ccc1-2 [Compound 92] | < 100 nM
34 | COc1ccc2c(c1)-c1[nH]ncc1Cc1c(-c3cnco3)ncn1-2 [Compound 95] | < 100 nM
35 | Cn1ncc2c1-c1cc(Cl)ccc1-n1cnc(C#CC(C)(C)C)c1C2 [Compound 102] | < 100 nM
36 | Clc1ccc2c(c1)-c1[nH]ncc1Cc1c(-c3nc(C4CCC4)no3)ncn1-2 [Compound 107] | < 100 nM
37 | COc1ccc2c(c1)-c1c(cnn1CC1CC1)Cc1c(-c3nc(C(F)(F)F)no3)ncn1-2 [Compound 117] | < 100 nM
38 | CCn1cc2c(n1)-c1cc(OC)ccc1-n1cnc(-c3nc(C4CC4)no3)c1C2 [Compound 152] | < 100 nM
39 | Cn1ncc2c1-c1cc(Cl)ccc1-n1cnc(-c3cnn(Cc4ccccc4)c3)c1C2 [Compound 164] | < 100 nM
40 | CC(C)n1cc2c(n1)-c1cc(Cl)ccc1-n1cnc(-c3cnn(Cc4ccccc4)c3)c1C2 [Compound 165] | 100 to 1000 nM
41 | Cn1cc2c(n1)-c1cc(Cl)ccc1-n1cnc(-c3ncco3)c1C2 [Compound 166] | < 100 nM

same assay, conditions: ranges of the column heads; [3H]Ro15-1788, Ltk cell membranes

Row | Ki | SMILES
42 | 100 to 1000 nM | C[C@@H]1COC(c2ncn3c2Cc2cnn(Cc4ccccc4)c2-c2cc(Cl)ccc2-3)=N1 [Compound 12]
43 | > 1000 nM | C[C@H]1COC(c2ncn3c2Cc2cnn(Cc4ccccc4)c2-c2cc(Cl)ccc2-3)=N1 [Compound 13]
44 | 100 to 1000 nM | COc1ccc2c(c1)-c1c(cnn1C)Cc1c(-c3nc(C)no3)ncn1-2 [Compound 18]
45 | > 1000 nM | COc1ccc2c(c1)-c1c(cnn1C)Cc1c(-c3nc(C(C)(C)C)no3)ncn1-2 [Compound 19]
46 | > 1000 nM | CCOC(=O)c1cnc2n1CC(=O)N(Cc1ccc(OC)cc1OC)c1cc(Cl)ccc1-2 [Compound 25]
47 | > 1000 nM | Cc1noc(-c2cnc3n2CC(=O)Nc2cc(Cl)ccc2-3)n1 [Compound 26]
48 | > 1000 nM | CC(C)c1noc(-c2cnc3n2CC(=O)Nc2cc(Cl)ccc2-3)n1 [Compound 27]
49 | > 1000 nM | CN1C(=O)Cn2c(C3=N[C@H](c4ccccc4)CO3)cnc2-c2ccc(Cl)cc21 [Compound 29]
50 | > 1000 nM | CN1C(=O)Cn2c(C3=N[C@@H](c4ccccc4)CO3)cnc2-c2ccc(Cl)cc21 [Compound 30]
51 | < 100 nM | CCOC(=O)c1ncn2c1Cc1cnoc1-c1cc(OC)ccc1-2 [Compound 40]
52 | > 1000 nM | COc1ccc2c(c1)-c1oncc1Cc1c(-c3nc(C(C)C)no3)ncn1-2 [Compound 41]
53 | > 1000 nM | COc1ccc2c(c1)-c1oncc1Cc1c(-c3nc(C)no3)ncn1-2 [Compound 42]
54 | > 1000 nM | COc1ccc2c(c1)-c1oncc1Cc1c(C3=N[C@@H](c4ccccc4)CO3)ncn1-2 [Compound 48]
55 | > 1000 nM | COc1ccc2c(c1)-c1oncc1Cc1c(C3=N[C@H](c4ccccc4)CO3)ncn1-2 [Compound 49]
56 | > 1000 nM | COc1ccc2c(c1)-c1oncc1Cc1c(C3=N[C@@H](c4ccc(C(F)(F)F)cc4)CO3)ncn1-2 [Compound 50]
57 | > 1000 nM | C#Cc1ncn2c1Cc1cnoc1-c1cc(OC)ccc1-2 [Compound 51]
58 | > 1000 nM | CC(C)Cc1noc(-c2ncn3c2Cc2cnoc2-c2cc(Cl)ccc2-3)n1 [Compound 66]
59 | > 1000 nM | COc1ccc2c(c1)-c1oncc1Cc1c(-c3nc(CC(C)C)no3)ncn1-2 [Compound 67]
60 | > 1000 nM | CC(C)C[C@@H]1COC(c2ncn3c2Cc2cnoc2-c2cc(Cl)ccc2-3)=N1 [Compound 68]
61 | > 1000 nM | Cc1noc(-c2ncn3c2Cc2cnoc2-c2cc(Cl)ccc2-3)n1 [Compound 69]
62 | 100 to 1000 nM | COc1ccc2c(c1)-c1[nH]ncc1Cc1c(C3=CCCC3)ncn1-2 [Compound 74]
63 | > 1000 nM | COc1ccc2c(c1)-c1[nH]ncc1Cc1c(-c3ccnn3C)ncn1-2 [Compound 78]
64 | > 1000 nM | COc1ccc2c(c1)-c1[nH]ncc1Cc1c(-c3cn(C)cn3)ncn1-2 [Compound 80]
65 | > 1000 nM | COc1ccc2c(c1)-c1[nH]ncc1Cc1c(-c3cn(C)nc3C(F)(F)F)ncn1-2 [Compound 81]
66 | < 100 nM | CC#Cc1ncn2c1Cc1cn[nH]c1-c1cc(OC)ccc1-2 [Compound 83]
67 | < 100 nM | COc1ccc2c(c1)-c1[nH]ncc1Cc1c(-c3noc(C(C)(C)C)n3)ncn1-2 [Compound 89]

Row | SMILES | Ki
68 | Clc1ccc2c(c1)-c1c(cnn1Cc1ccccc1)Cc1c(C3=N[C@@H](c4ccccc4)CO3)ncn1-2 [Compound 6] | > 1000 nM
69 | Cc1noc(-c2cnc3n2CC(=O)N(C)c2cc(Cl)ccc2-3)n1 [Compound 32] | > 1000 nM
70 | CC(C)c1noc(-c2cnc3n2Cc2nncn2-c2cc(Cl)ccc2-3)n1 [Compound 58] | > 1000 nM
71 | CC(C)c1noc(-c2ncn3c2Cc2cnoc2-c2cc(Cl)ccc2-3)n1 [Compound 59] | > 1000 nM
